Measured values as given in patent US6211439A, “Herbicide resistance in plants” (MGI Pharma, Inc, priority 1995, dated 2001).
Converted amounts (≈) assume the structure as drawn. Read-outs that look alike come from different tables or passages of the source.

How the values were obtained:
[1] = test system: AHAS activity of line XA17 tissue; assay: AHAS activity assay, line XA17 tissue; format: biochemical, maize; conditions: for IC50: AHAS activity of line XA17 tissue, read-out: concentration inhibiting AHAS activity 50%; for change in herbicide sensitivity of AHAS, line XA17 vs control, on a concentration basis: maize
Method: (§1) Assays were conducted as a modification of the procedure of Smith et al. (1979, Molec. Gen. Genet. 169: 299-314). Plant cell culture material was ground with sand in a cold mortar and pestle in an equal quantity (w/v) of cell disruption media containing 0.05 M potassium phosphate (pH 7.0), 0.1 mM MgSO4, and 0.5 mM dithiothreitol. The preparation was centrifuged at 11,000×g for 20 minutes and the supernatant assayed for AHAS activity. Assays were conducted in 1 ml volumes containing 0.05 M potassium phosphate (pH 8.0), 40 mM pyruvate, 5 mM MgCl2, 0.1 mM thiamine pyrophosphate, 0.2 ml cell extract, and various concentrations of the herbicide of interest. The reaction mixtures were incubated at 30° C. for 75 minutes and the reaction terminated with the addition of 0.1 ml of 50% (v/v) H2 SO4. Following further incubation at 40° C. for 20 minutes, the acetoin formed from acetolactate by acidification was quantitated using the method of Westerfield (1945, J. Biol. Chem. 161: 495). To 0.2 ml of reaction mixture, 0.8 ml of water, 0.5 ml of 0.5% (w/v) creatine, and 0.5 ml of 5% (w/v) naphthol in 10% (w/v) NaOH was added. After mixing, solutions were incubated at room temperature for one hour. The development of pink color was quantitated by measuring light absorbance at 530 nm.
Assays were conducted to determine if acetohydroxyacid synthase extracted from line XA17 tissue was altered with respect to herbicide sensitivity. Such a change would signify that an alteration of this enzyme conferred the herbicide resistance. Assays were conducted as described supra.

[2] = test system: acetohydroxyacid synthase (AHAS); assay: AHAS activity assay, extract of maize cell cultures / control tissue; format: biochemical
Method: as §1, with “Plant” for “Assays were conducted as a modification of the procedure of Smith et al. (1979, Molec. Gen. Genet. 169: 299-314). Plant”, “Following further incubation at 40° C. for 20 minutes, the acetoin formed from acetolactate by acidification was quantitated using the method of Westerfield (1945, J. Biol. Chem. 161: 495).” left out, “hour.” for “hour. The development of pink color was quantitated by measuring light absorbance at 530 nm.”

[3] = test system: unselected maize callus tissue; assay: Callus culture growth inhibition, unselected tissue; format: cell-based; conditions: for IC50: Zea mays, 336 h
Method: Therefore the effects of 214 were determined on callus growth. Quantities of tissue averaging 90 mg in size were transferred to nutrient agar maintenance media containing concentrations of 214 ranging from 0.003 to 3 mg per liter. Eight tissue pieces were placed on each plate with three plates per herbicide concentration. After 14 days growth, the tissue was weighed again.

[4] = test system: Callus tissue from line QJ22; assay: Callus growth inhibition, line QJ22; format: cell-based, maize; conditions: line QJ22 vs control tissue; based on herbicide amount giving 50% reduction in growth rate
Method: Callus tissue from line QJ22 was tested also with the compound 567. The numbers represent the fold increase in herbicide concentration that can be tolerated by each of the cell lines as compared to control tissue. The values were calculated based on the amount of herbicide that gave a 50% reduction in growth rate.

[5] = test system: maize cell suspension cultures; assay: Reversal of herbicide growth inhibition by leucine, valine and isoleucine; format: cell-based; set-up: key to Cell suspension culture growth, (+) 997: settled cell volume, ml per 10 ml of suspension
Method: (§2) Growth inhibition studies were carried out in 125 ml flasks containing 30 ml of test media. 997 was filter sterilized and added to cooling media following autoclaving. Test media were innoculated with cells to give a settled cell volume (15 minutes without centrifugation) of 0.2 ml per 10 ml of suspension. After either six or seven days growth settled cell volumes were again quantitated.
Cells were tested to determine whether the herbicide induced inhibition of growth was the result of the decreased availability of the three branched chain amino acids. Cells were exposed to toxic levels of 997 (1×10^-6 M) in media either supplemented with 1 mM concentrations of leucine, valine, and isoleucine or with no supplementation. Culture growth rates in the absence of amino acid supplementation and in the presence of 1×10^-6 M 997 were reduced to 16% that of herbicide free cultures.
Experiments were conducted to determine the optimum supplementation levels of each of the three amino acids to obtain maximum herbicide protection and for gaining insight into the site of action of the compound.

[6] = test system: Black Mexican Sweet Corn cell suspension cultures; assay: Growth inhibition of maize cell suspension cultures; format: cell-based
Method: Nonregenerable Black Mexican Sweet Corn cell suspension cultures (i.e., cell cultures which lack the ability to regenerate plants) were obtained from Dr. Burle Gengenbach, Department of Agronomy and Plant Genetics, University of Minnesota, St. Paul, Minn. Stock cell cultures were maintained in liquid Murashige and Skoog (MS) medium (Murashige and Skoog, 1962, Physiol. Plant 15: 473) containing 2 mg of 2,4-dichlorophenoxyaceticacid (2,4-D) per liter, and subcultured weekly by diluting to 1/10 the original volume with fresh medium. Cultures were grown in the dark at 26° C. in 500 ml flasks containing 125 ml media.
as §2
To determine whether the effects of 214 were reversible, Black Mexican Sweet Corn cells growing in liquid suspension culture were exposed to 0.03 mg per liter 214 for various periods of time up to 72 hours. […] The cells were then washed with herbicide-free media and the growth rate evaluated again in the absence of herbicide.

[7] = AHAS activity of control tissue, read-out: concentration inhibiting AHAS activity 50%
[8] = read-out: level giving a 50% growth inhibition

CC(C)C1(C)NC(c2nc3ccccc3cc2C(=O)O)=NC1=O (stereo not shown) [compound 214, 2-(5-isopropyl-5-methyl-4-oxo-2-imidazolin-2-yl)3-quinolinecarboxylic acid]
IC50 [1]: 3000 to 30000 µM
change in herbicide sensitivity of AHAS, line XA17 vs control, on a concentration basis [1]: ≥ 1000 fold
effect on AHAS enzyme activity ([2]; AHAS activity from maize cell cultures): inhibited the enzyme activity
IC50 [2, 7]: 1 to 10 µM
Cell death ([3]; 14 day period, 0.003 to 3 mg per liter): not observed to occur
IC50 ([3]; read-out: concentration giving half maximal inhibition of callus growth rate): 0.1 to 0.3 µg/mL (≈ 0.321 to 0.964 µM)
IC50 [3, 8]: 0.1 to 0.3 µg/mL (≈ 0.321 to 0.964 µM)
Callus Growth Fold Increase in Tolerance [4]: 5 fold
effect of media supplementation with leucine, isoleucine, valine on growth inhibition ([5]; 1 mM each of leucine, isoleucine, and valine, cell suspension cultures): reversed the growth inhibitory effects
Growth of cells in liquid suspension culture ([6]; 0.03 mg per liter 214, up to 72 hours): completely inhibited
growth rate after washing with herbicide-free media ([6]; after exposure to 0.03 mg per liter 214 up to 72 hours): rapidly return to an uninhibited growth rate

CC(C)C1(C)NC(c2ncccc2C(=O)O)=NC1=O (stereo not shown) [compound 997, 2-(5-isopropyl-5-methyl-4-oxo-2-imidazolin-2-yl)nicotinic acid]
IC50 [1]: 3000 to 30000 µM
change in herbicide sensitivity of AHAS, line XA17 vs control, on a concentration basis [1]: ≥ 1000 fold
IC50 ([2]; AHAS activity from maize cell cultures, read-out: concentration reducing AHAS enzyme activity 50%): 8 µM
IC50 [2, 7]: 1 to 10 µM
IC50 [3, 8]: 0.1 to 0.3 µg/mL (≈ 0.383 to 1.15 µM)
Callus Growth Fold Increase in Tolerance [4]: 30-50 fold
Cell suspension culture growth, (+) 997 ([5]; 0.3 ile): .33
Cell suspension culture growth, (+) 997 ([5]; 0.3 leu): .29
Cell suspension culture growth, (+) 997 ([5]; 0.3 val): .48
Culture growth rate relative to control cultures ([5]; 1×10^-6 M 997, media supplemented with 1 mM leucine, valine, and isoleucine): 91%
effect of media supplementation with leucine, valine, isoleucine on growth inhibition ([5]; 997 ranging in concentration from 1×10^-8 to 1×10^-3 M): could reverse the growth inhibitory effects
Cell suspension culture growth, (+) 997 ([5]; Leucine, Valine, Isoleucine 1,1,1): 1.88
Cell suspension culture growth, (+) 997 ([5]; Leucine, Valine, Isoleucine 1,1,.1): .93
Cell suspension culture growth, (+) 997 ([5]; Leucine, Valine, Isoleucine 1,1,.3): 1.55
Cell suspension culture growth, (+) 997 ([5]; Leucine, Valine, Isoleucine 1,.1,1): 1.28
Cell suspension culture growth, (+) 997 ([5]; Leucine, Valine, Isoleucine 1,.1,.1): 1.03
Cell suspension culture growth, (+) 997 ([5]; Leucine, Valine, Isoleucine 1,.1,.3): 1.38
Cell suspension culture growth, (+) 997 ([5]; Leucine, Valine, Isoleucine 1,.3,1): 1.45
Cell suspension culture growth, (+) 997 ([5]; Leucine, Valine, Isoleucine 1,.3,.1): .98
Cell suspension culture growth, (+) 997 ([5]; Leucine, Valine, Isoleucine 1,.3,.3): 1.40
Cell suspension culture growth, (+) 997 ([5]; Leucine, Valine, Isoleucine .1,1,1): .60
Cell suspension culture growth, (+) 997 ([5]; Leucine, Valine, Isoleucine .1,1,.1): .83
Cell suspension culture growth, (+) 997 ([5]; Leucine, Valine, Isoleucine .1,1,.3): .68
Cell suspension culture growth, (+) 997 ([5]; Leucine, Valine, Isoleucine .1,.1,1): .58
Cell suspension culture growth, (+) 997 ([5]; Leucine, Valine, Isoleucine .1,.1,.1): .70
Cell suspension culture growth, (+) 997 ([5]; Leucine, Valine, Isoleucine .1,.1,.3): .68
Cell suspension culture growth, (+) 997 ([5]; Leucine, Valine, Isoleucine .1,.3,1): .80
Cell suspension culture growth, (+) 997 ([5]; Leucine, Valine, Isoleucine .1,.3,.1): .75
Cell suspension culture growth, (+) 997 ([5]; Leucine, Valine, Isoleucine .1,.3,.3): .90
Cell suspension culture growth, (+) 997 ([5]; Leucine, Valine, Isoleucine .3,1,1): 1.30
Cell suspension culture growth, (+) 997 ([5]; Leucine, Valine, Isoleucine .3,1,.1): 1.08
Cell suspension culture growth, (+) 997 ([5]; Leucine, Valine, Isoleucine .3,1,.3): 1.30
Cell suspension culture growth, (+) 997 ([5]; Leucine, Valine, Isoleucine .3,.1,1): .80
Cell suspension culture growth, (+) 997 ([5]; Leucine, Valine, Isoleucine .3,.1,.1): .70
Cell suspension culture growth, (+) 997 ([5]; Leucine, Valine, Isoleucine .3,.1,.3): .95
Cell suspension culture growth, (+) 997 ([5]; Leucine, Valine, Isoleucine .3,.3,1): 1.08
Cell suspension culture growth, (+) 997 ([5]; Leucine, Valine, Isoleucine .3,.3,.1): .95
Cell suspension culture growth, (+) 997 ([5]; Leucine, Valine, Isoleucine .3,.3,.3): 1.18
Cell suspension culture growth, (+) 997 ([5]; No Supplementation (4 replicates)): 0.30
activity at 1 µM ([5]; Zea mays, 1×10^-6 M 997, absence of amino acid supplementation, read-out: Culture growth rate relative to herbicide free cultures): 16%
herbicide concentration giving 50% growth inhibition ([6]; suspension cultures, concentration in the media, settled cell volume after six or seven days): 1 to 3×10^-8 M
